Data as given in US7268128B2, “1,3,5-trisubstituted-5-phenyl and 5-pyridyl pyrazolopyrimidinone derivatives having PDE7 inhibiting action” (Ausbio Pharma Co., Ltd., priority 2001, dated 2007).
Counter-ions that a name gives are not always drawn.

biological target: T1, PDE7 (type VII phosphodiesterase) (Homo sapiens, UniProt Q13946); assay: PDE7 inhibiting activity (3H-cAMP hydrolysis, active fraction from MOLT-4 cells); type: biochemical; conditions: PDE7 fraction from MOLT-4 cells, 0.064 μM cAMP, 10 μM rolipram present, 2 hours at 25° C.; read-out: IC50 values for phosphodiesterase inhibiting activities (PDE7)
T1 construct: endogenous in cells; host or cells: MOLT-4 (ATCC CRL-1582), soluble fraction, HiTrapQ anion-exchange fraction
T1 sequence (Q13946 whole entry): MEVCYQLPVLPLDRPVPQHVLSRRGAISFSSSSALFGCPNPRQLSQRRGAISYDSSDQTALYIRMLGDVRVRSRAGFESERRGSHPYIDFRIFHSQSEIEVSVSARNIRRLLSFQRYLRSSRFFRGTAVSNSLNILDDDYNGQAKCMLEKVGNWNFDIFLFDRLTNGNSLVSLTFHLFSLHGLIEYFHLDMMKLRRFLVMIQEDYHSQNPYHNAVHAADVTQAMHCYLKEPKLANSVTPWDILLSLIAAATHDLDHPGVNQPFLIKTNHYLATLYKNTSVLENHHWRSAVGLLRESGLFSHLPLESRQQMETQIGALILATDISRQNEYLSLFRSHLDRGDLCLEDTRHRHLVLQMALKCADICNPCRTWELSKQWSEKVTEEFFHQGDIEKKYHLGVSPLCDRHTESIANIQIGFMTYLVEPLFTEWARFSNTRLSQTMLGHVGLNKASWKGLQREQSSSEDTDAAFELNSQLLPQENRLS
Experimental: To evaluate the compounds of the present invention for the ability to suppress PDE7 (type VII phosphodiesterase), the method of Biochemical Pharmacol. 48(6), 1219-1223 (1994) was partially modified to perform the following assay:
1) PDE7 (type VII phosphodiesterase) active fraction was obtained. That is, human acute lymphoblastoid lymphoma T cell strain MOLT-4 (purchasable from ATCC under ATCC No. CRL-1582) was cultured in RPMI1640 medium containing 10% fetal bovine serum to obtain 5×10^8 MOLT4 cells. The cells were harvested by centrifugation, and suspended in 10 ml of buffer A (25 mM tris-HCl, 5 mM 2-mercaptoethanol, 2 mM benzamidine, 2 mM EDTA, 0.1 mM 4-(2-aminoethyl)benzenesulfonyl hydrochloride, pH 7=7.5). The cells were homogenized in a Polytoron homogenizer, and centrifuged (4° C., 25,000 G, 10 min). The supernatant was further ultracentrifuged (4° C., 100,000 G, 60 min), and the resulting supernatant was filtered through a 0.2 μm filter to obtain a soluble fraction.
2) HiTrapQ column (5 ml×2) equilibrated with buffer A was charged with the resulting soluble fraction. Phosphodiesterase was eluted using 300 ml of buffer A containing a linear gradient solution of 0 to 0.8M sodium chloride to collect sixty 5 ml fractions. Each fraction was tested for cAMP metabolizing phosphodiesterase activity.
3) The test compounds at desired concentrations were each reacted for 2 hours at 25° C. in a reactant mixture containing 20 mM tris-HCl (pH 7.5), 1 mM MgCl2, 100 μM EDTA, 330 μg/ml bovine serum albumin, 4 μg/ml 5′-nucleotidase, 0.1 μCi^3H-cAMP (0.064 μM cAMP), 10 μM rolipram, and the type VII phosphodiesterase stored solution. QAE-Sephadex suspended in 10 mM HEPES-Na (pH 7.0) was added to the reaction mixture, and the mixture was allowed to stand for 5 minutes. Then, the supernatant was recovered, and QAE-Sephadex was further added, followed by allowing the mixture to stand for 5 minutes. Then, the resulting supernatant was measure for radioactivity.
4) IC50, as the concentration of the test compound that inhibited 50% of the metabolic activity of PDE7, was calculated for each of the compounds.

| Compound | IC50 [µM] |
| --- | --- |
| COc1cc(N2CCS(=O)(=O)CC2)ccc1-c1nc2c(c(C3CCCCC3)nn2C)c(=O)[nH]1 [Example 192, 3-Cyclohexyl-6-[4-(1,1-dioxido-4-thiomorpholinyl)-2-methoxyphenyl]-1-methyl-1,5-dihydro-4H-pyrazolo[3,4-d]pyrimidin-4-one] | ≤ 0.01 |
| COc1cc(S(=O)(=O)N2CCCNCC2)ccc1-c1nc2c(C)nn(C3CCCCC3)c2c(=O)[nH]1 [Example 203, 1-Cyclohexyl-5-[4-(1,4-diazepan-1-ylsulfonyl)-2-methoxyphenyl]-3-methyl-1,6-dihydro-7H-pyrazolo[4,3-d]pyrimidin-7-one monomethanesulfonate] | ≤ 1 |
| COc1cc(N2CCCNCC2)ccc1-c1nc2c(C)nn(C3CCCCC3)c2c(=O)[nH]1 [Example 125, 1-Cyclohexyl-5-[4-(1,4-diazepan-1-yl)-2-methoxyphenyl]-3-methyl-1,6-dihydro-7H-pyrazolo[4,3-d]pyrimidin-7-one] | ≤ 0.01 |
| COc1cc(N2CCOC2=O)ccc1-c1nc2c(c(C3CCCCC3)nn2C)c(=O)[nH]1 [Example 143, 3-Cyclohexyl-6-[2-methoxy-4-(2-oxo-1,3-oxazolidin-3-yl)phenyl]-1-methyl-1,5-dihydro-4H-pyrazolo[3,4-d]pyrimidin-4-one] | ≤ 0.01 |
| COc1cc(S(=O)(=O)N(C)CCN)ccc1-c1nc2c(C)nn(C3CCCCC3)c2c(=O)[nH]1 [Example 210-1, N-(2-aminoethyl)-4-(1-cyclohexyl-3-methyl-7-oxo-6,7-dihydro-1H-pyrazolo[4,3-d]pyrimidin-5-yl)-3-methoxy-N-methylbenzenesulfonamide] | ≤ 1 |
| COc1cc(C2=CCNCC2)ccc1-c1nc2c(C)nn(C3CCCCC3)c2c(=O)[nH]1 [Example 273, 1-Cyclohexyl-5-[2-methoxy-4-(1,2,3,6-tetrahydro-4-pyridinyl)phenyl]-3-methyl-1,6-dihydro-7H-pyrazolo[4,3-d]pyrimidin-7-one monohydrochloride] | ≤ 1 |
| CNC1CCN(c2ccc(-c3nc4c(c(C5CCCCCC5)nn4C)c(=O)[nH]3)c(OC)c2)CC1 [Example 95, 3-Cycloheptyl-6-{2-methoxy-4-[4-(methylamino)-1-piperidinyl]phenyl}-1-methyl-1,5-dihydro-4H-pyrazolo[3,4-d]pyrimidin-4-one monomethanesulfonate] | ≤ 0.01 |
| COc1cc(S(=O)(=O)N2CCC(N)CC2)ccc1-c1nc2c(c(C3CCCCC3)nn2C)c(=O)[nH]1 [Example 175, 6-{4-[(4-Amino-1-piperidinyl)sulfonyl]-2-methoxyphenyl}-3-cyclohexyl-1-methyl-1,5-dihydro-4H-pyrazolo[3,4-d]pyrimidin-4-one monomethanesulfonate] | ≤ 1 |
| Cc1nn(C2CCCCC2)c2c(=O)[nH]c(-c3ccc(N)cc3)nc12 [Example 3, 5-(4-Aminophenyl)-1-cyclohexyl-3-methyl-1,6-dihydro-7H-pyrazolo[4,3-d]pyrimidin-7-one] | ≤ 1 |
| COc1cc(S(=O)(=O)N2CCCN(C)CC2)ccc1-c1nc2c(c(C3CCCCC3)nn2C)c(=O)[nH]1 [Example 163, 3-Cyclohexyl-6-{2-methoxy-4-[(4-methyl-1,4-diazepan-1-yl)sulfonyl]phenyl}-1-methyl-1,5-dihydro-4H-pyrazolo[3,4-d]pyrimidin-4-one monomethanesulfonate] | ≤ 0.01 |
| Cc1nn(C2CCCCC2)c2c(=O)[nH]c(-c3ccccc3)nc12 [Example 1, 1-Cyclohexyl-3-methyl-5-phenyl-1,6-dihydro-7H-pyrazolo[4,3-d]pyrimidin-7-one] | ≤ 1 |
| COc1cc(CCC(=O)O)ccc1-c1nc2c(C)nn(C3CCCCC3)c2c(=O)[nH]1 [Example 229, 3-[4-(1-Cyclohexyl-3-methyl-7-oxo-6,7-dihydro-1H-pyrazolo[4,3-d]pyrimidin-5-yl)-3-methoxyphenyl]propanic acid] | ≤ 1 |
| COc1cc(N2CCN(C)C2=O)ccc1-c1nc2c(c(C3CCCCC3)nn2C)c(=O)[nH]1 [Example 152, 3-Cyclohexyl-6-[2-methoxy-4-(3-methyl-2-oxo-1-imidazolidinyl)phenyl]-1-methyl-1,5-dihydro-4H-pyrazolo[3,4-d]pyrimidin-4-one] | ≤ 0.01 |
| CCOC(=O)Nc1ccc(-c2nc3c(c(C4CCCCC4)nn3C)c(=O)[nH]2)c(OC)c1 [Example 145, Ethyl 4-(3-cyclohexyl-1-methyl-4-oxo-4,5-dihydro-1H-pyrazolo[3,4-d]pyrimidin-6-yl)-3-methoxyphenylcarbamate] | ≤ 0.01 |
| COc1cc(N(C)C2CCN(C)CC2)ccc1-c1nc2c(C)nn(C3CCCCC3)c2c(=O)[nH]1 [Example 267, 1-Cyclohexyl-5-{2-methoxy-4-[methyl(1-methyl-4-piperidinyl)amino]phenyl}-3-methyl-1,6-dihydro-7H-pyrazolo[4,3-d]pyrimidin-7-one] | ≤ 1 |
| COc1cc(C2CCN(C)CC2)ccc1-c1nc2c(C)nn(C3CCCCC3)c2c(=O)[nH]1 [Example 124, 1-Cyclohexyl-5-[2-methoxy-4-(1-methyl-4-piperidinyl)phenyl]-3-methyl-1,6-dihydro-7H-pyrazolo[4,3-d]pyrimidin-7-one] | ≤ 1 |
| CNCCN(C)c1ccc(-c2nc3c(C)nn(C4CCCCC4)c3c(=O)[nH]2)c(OC)c1 [Example 103, 1-Cyclohexyl-5-(2-methoxy-4-{methyl[2-(methylamino)ethyl]amino}phenyl)-3-methyl-1,6-dihydro-7H-pyrazolo[4,3-d]pyrimidin-7-one monofumarate] | ≤ 0.01 |
| COc1cc(N2CCC(O)CC2)ccc1-c1nc2c(C)nn(C3CCCCC3)c2c(=O)[nH]1 [Example 258, 1-Cyclohexyl-5-[4-(4-hydroxy-1-piperidinyl)-2-methoxyphenyl]-3-methyl-1,6-dihydro-7H-pyrazolo[4,3-d]pyrimidin-7-one] | ≤ 1 |
| COc1cc(N2CCC(O)CC2)ccc1-c1nc2c(c(C3CCCCC3)nn2C)c(=O)[nH]1 [Example 31, 3-Cyclohexyl-6-[4-(4-hydroxy-1-piperidinyl)-2-methoxyphenyl]-1-methyl-1,5-dihydro-4H-pyrazolo[3,4-d]pyrimidin-4-one] | ≤ 0.01 |
| COc1ccc(F)cc1-c1nc2c(C)nn(C3CCCCC3)c2c(=O)[nH]1 [Example 18, 1-Cyclohexyl-5-(5-fluoro-2-methoxyphenyl)-3-methyl-1,6-dihydro-7H-pyrazolo[4,3-d]pyrimidin-7-one] | ≤ 1 |
| CCOc1cc(N2CCC(N(C)C)CC2)ccc1-c1nc2c(C)nn(C3CCCCC3)c2c(=O)[nH]1 [Example 250, 1-Cyclohexyl-5-{4-[4-(dimethylamino)-1-piperidinyl]-2-ethoxyphenyl}-3-methyl-1,6-dihydro-7H-pyrazolo[4,3-d]pyrimidin-7-one] | ≤ 0.01 |
| COc1cc(N2CCN(C)CC2)ccc1-c1nc2c(c(C3CCCCCC3)nn2C)c(=O)[nH]1 [Example 64, 3-Cycloheptyl-6-[2-methoxy-4-(4-methyl-1-piperazinyl)phenyl]-1-methyl-1,5-dihydro-4H-pyrazolo[3,4-d]pyrimidin-4-one] | ≤ 1 |
| COc1cc(N2CCCN(C(C)=O)CC2)ccc1-c1nc2c(C)nn(C3CCCCC3)c2c(=O)[nH]1 [Example 126, 5-[4-(4-Acetyl-1,4-diazepan-1-yl)-2-methoxyphenyl]-1-cyclohexyl-3-methyl-1,6-dihydro-7H-pyrazolo[4,3-d]pyrimidin-7-one] | ≤ 1 |
| COc1cc(N2CCSCC2)ccc1-c1nc2c(c(C3CCCCC3)nn2C)c(=O)[nH]1 [Example 176, 3-Cyclohexyl-6-[2-methoxy-4-(4-thiomorpholinyl)phenyl]-1-methyl-1,5-dihydro-4H-pyrazolo[3,4-d]pyrimidin-4-one] | ≤ 1 |
| COc1cc(N2CCNC2=O)ccc1-c1nc2c(c(C3CCCCC3)nn2C)c(=O)[nH]1 [Example 144, 3-Cyclohexyl-6-[2-methoxy-4-(2-oxo-1-imidazolidinyl)phenyl]-1-methyl-1,5-dihydro-4H-pyrazolo[3,4-d]pyrimidin-4-one] | ≤ 0.01 |
| COc1ccccc1-c1nc2c(c(C3CCCCC3)nn2C)c(=O)[nH]1 [Example 24, 3-Cyclohexyl-6-(2-methoxyphenyl)-1-methyl-1,5-dihydro-4H-pyrazolo[3,4-d]pyrimidin-4-one] | ≤ 1 |
| CCOc1cc(N2CCN(C)CC2)ccc1-c1nc2c(C)nn(C3CCCCC3)c2c(=O)[nH]1 [Example 264, 1-Cyclohexyl-5-[2-ethoxy-4-(4-methyl-1-piperazinyl)phenyl]-3-methyl-1,6-dihydro-7H-pyrazolo[4,3-d]pyrimidin-7-one] | ≤ 1 |
